Assay results taken from US4845029A, “Method for the determination of sarcosine creatine or creatinine” (Boehringer Mannheim GmbH, priority 1985, dated 1989).

How the values were obtained:
Format in all cases: biochemical
[1] = test system: sarcosine oxidase according to the present invention, obtainable from Streptomycetaceae; assay: KM and Vmax for sarcosine; details: substrate sarcosine
Protocol: In contradistinction thereto, the KM values of the known sarcosine oxidases which are sufficiently stable for these determinations are, under these conditions, abou 16 to 20 mmol/liter.
(§1) The KM values for sarcosine (phosphate buffer; TES buffer), measured at 25° C. in various stressing reagents, are 2 to 3 mmol/litre. The Vmax is about 6 U/mg. protein. The followig Table I gives, for various preparations of the enzyme according to the present invention, the KM values for sarcosine measured at 25 and at 37° C. For comparison, there are given the corresponding values for the known Bacillus enzyme.

[2] = test system: known sarcosine oxidase from Bacillus sp. (comparison enzyme); assay: KM value for sarcosine in stressing reagent a; details: pH 7.9, detergent-containing
Protocol: as §1
(§2) 0.15 mole potassium phosphate or 0.1 mole TES/KOH (pH 7.9), 8.6 mmole 2,4,6-tribromo-3-hydroxybenzoic acid, 0.8 mmole 4-aminoantipyrine, 10 μmole potassium ferrocyanide, 5 mmole sodium cholate, 0.5% Lutensol ON 50, 0.2% sodium azide, 0.5 mmole Titriplex III, 2000 U lipase, 2000 U peroxidase and 10000 U ascorbate oxidase, per liter. [Lutensol ON 50 ^R is obtained from BASF AG and is n-decanol-polyglycolether having an average of 5 ethylene glycol units per molecule i.e. CH3 -(CH2)9 -(OCH2 -CH2)5 -OH. Titriplex III is the disodium salt of ethylenediaminetetracetic acid and can be obtained from Merck.]

[3] = test system: sarcosine oxidase from Streptomyces flocculus (DSM 40 327), crude extract supernatant; assay: KM value for sarcosine in stressing reagent a; details: 37 °C, TES buffer, pH 7.9, detergent-containing
Protocol: as §1, §2

[4] = test system: sarcosine oxidase from Chainia purpurogena, crude extract supernatant; assay: KM value for sarcosine in stressing reagent a; details: 37 °C, pH 7.9, detergent-containing
Protocol: as §1, §2

[5] = test system: sarcosine oxidase (E.C. 1.5.3.1) from Chainia purpurogena (DSM 43 156), pure enzyme; assay: KM value for sarcosine in stressing reagent a; details: pH 7.9, detergent-containing
Protocol: as §1, §2

`CNCC(=O)O` [sarcosine] was tested, and the Vmax [1] was “about 6 U/mg. protein”, the Km ([2]; 25 °C, TES buffer) was 20 mM and the Km ([2]; 25 °C, phosphate buffer) was 16 mM. It also gave a Km ([2]; 37 °C, TES buffer) of 20 mM, a Km ([2]; 37 °C, phosphate buffer) of 18 mM and a Km [3] of 3.5 mM. For the same compound, the Km ([4]; TES buffer) was 3 mM, the Km ([4]; phosphate buffer) was 3 mM and the Km ([5]; 25 °C, TES buffer) was 2.8 mM. For the same compound, the Km ([5]; 25 °C, phosphate buffer) was 2 mM, the Km ([5]; 37 °C, TES buffer) was 3 mM and the Km ([5]; 37 °C, phosphate buffer) was 3.5 mM.
